From patent US20250134998A1, “T CELLS WITH CELL-SURFACE EXPRESSION OF ADENOSINE DEAMINASE AND USES THEREOF” (The Board of Trustees of the Leland Stanford Junior …, priority 2021, published 2025)

Legend:
Type in all cases: cell-based, human
[1] = tested on: CD19.BBz CAR T cells; experiment: Suppression assay: IL-2 secretion by CD19 CAR T cells with HA CAR T cells present; conditions: CD19 CAR T cells pre-incubated with A2aR inhibitor, in the presence of adenosine-producing HA cells
Description: Suppression Assay: For assessing IL-2 secretion inhibition 5×10^4 CD19 CAR T cells 5×10^4 Nalm6 tumor cells together with 5×10^4 of HA CAR or Mock T cells were cultured in 300 μL CM in 96-well flat bottom plates for 24 h. Triplicate wells were plated for each condition. Culture supernatants were collected and analyzed for IL-2 by ELISA (BioLegend).
IL-2 secreted by CD19.BBz CAR T cells co-cultured with Nalm6 leukemia cells was measured in the presence or absence of bulk or sorted CD8+HA CAR T cells for 24 hours.
To test this hypothesis that adenosine production was responsible for the suppressive function of exhausted CAR T cells over neighboring cells, whether HA CAR-T cells were able to produce adenosine in an autocrine manner was investigated (FIG. 7D). Next, CD19 CAR T cells that were pre-incubated with A2aR inhibitor were activated in the presence or absence of (CD8) HA CAR T cells.

[2] = tested on: NF-kB pathway; experiment: NF-κB-GFP activation reporter in HA CAR-T cells
Description: FIG. 7C illustrates NFkB-GFP activation level 4 hrs after stimulation of HA CAR T cells in the presence or absence of NECA and A2aR competitive inhibitor. Data are mean s.e.m. from triplicate wells.
To test whether CAR T cells are susceptible to adenosine-mediated suppression, HA and CD19 CAR T cells were activated with plate-bounded idiotype in the presence or absence of the adenosine receptor agonist 5′-(N-ethylcarboxamido) adenosine (NECA), and analyzed the effector cytokine secretion capacity by ELISA (FIG. 6D; FIGS. 7A-7B). […] Adenosine-dependent a2aR stimulation led to elevate intracellular 3′,5′-cyclic adenosine monophosphate (cAMP) which in turn inhibited the NF-kB pathway and cell proliferation (FIG. 6A). To evaluate whether adenosine suppression of CAR T cells worked through the same mechanisms, an NF-κB activation reporter was constructed by placing the Green Fluorescence Protein (GFP) gene downstream of NF-κB response elements. HA CAR-T cells were co-transduced with this NF-kB-GFP reporter. Upon activation with plate-bound idiotype, NECA diminished activation of the NF-kB-GFP reporter (FIG. 7C). This inhibitory effect on activation was prevented by addition of the selective A2aR competitive antagonist (iA2aR), confirming A2a receptor (A2aR) involvement in the suppressive effect of NECA on HA CAR-T cells.

[3] = tested on: Nalm6-GD2; experiment: IL-2 and IFNγ ELISA, HA CAR T cells stimulated with Nalm6-GD2 with or without EHNA; conditions: 10 uM EHNA
Description: HA CAR T cells were stimulated with Nalm6-GD2 tumor line in the presence or absence of 10 uM of EHNA inhibitor at day 15 post-activation. IL-2 and IFNγ secretion was assessed using ELISA. One donor shown.
In some further experiments, CAR T cells overexpressing either ADA1-TM or ADA2-TM were activated with Nalm6-GD2 in the presence or absence of 10 uM of adenosine deaminase inhibitor—EHNA. It was observed that both CAR T cells overexpressing either HA-ADA1-TM or HA-ADA2-TM produced more IL-2 and IFNγ as compared to control group and this increase was abrogated in the presence of EHNA (see e.g., FIG. 12D).

[4] = tested on: HA and CD19 CAR T cells; experiment: Cytokine secretion by idiotype-activated CAR T cells with NECA (ELISA); conditions: plate-bound idiotype, NECA treatment
Description: Co-culture Assays: CAR-T cells were cultured with 1 μM of CPI444 (CORVUS BIOPHARMA) for 2 to 24 hours before the duration of co-culture (unless stated otherwise) with tumor cells or plate-bound idiotype at the concentration 1 or 5 μg/ml. To stimulate a2aR, cells were treated with 0.01-0.1 mM of NECA (Torcis). For cytotoxicity assays, approximately 5×10^4 of tumor cells were co-cultured with CAR T cells at indicated ratio in 200 μL CM in 96-well flat bottom plates. Four images per well at 10× zoom were collected at each time point. Tumor cell growth was quantified by measuring total integrated GFP intensity per well using an IncuCyte ZOOM Live-Cell analysis system (Essen Bioscience) every 2-3 hr. GFP signal was normalized to the time 0 signal. Cell culture supernatants were collected at 24 hours, and interleukin-2 (IL-2) and interferon-g concentrations were determined by enzyme-linked immunosorbent assay (Biolegend). Triplicate wells were plated for each condition. […]
To test whether CAR T cells are susceptible to adenosine-mediated suppression, HA and CD19 CAR T cells were activated with plate-bounded idiotype in the presence or absence of the adenosine receptor agonist 5′-(N-ethylcarboxamido) adenosine (NECA), and analyzed the effector cytokine secretion capacity by ELISA (FIG. 6D; FIGS. 7A-7B). […]

Cc1ccc(-c2nc(N)nc3c2nnn3Cc2cccc(CO[C@H]3CCOC3)n2)o1 [iA2aR]
IL-2 production by CD19 CAR T cells [1]: restored IL-2 production
inhibitory effect of NECA on NF-kB-GFP reporter activation ([2]; A2aR antagonist added): prevented

CCCCCC[C@@H]([C@@H](C)O)n1cnc2c(N)ncnc21 (racemic) [EHNA]
increase in IFNγ by CAR T cells overexpressing HA-ADA1-TM or HA-ADA2-TM [3]: abrogated
increase in IL-2 by CAR T cells overexpressing HA-ADA1-TM or HA-ADA2-TM [3]: abrogated

CCNC(=O)[C@H]1O[C@@H](n2cnc3c(N)ncnc32)[C@H](O)[C@@H]1O [NECA, 5′-(N-ethylcarboxamido) adenosine]
activation of the NF-kB-GFP reporter ([2]; plate-bound idiotype): diminished
IFNγ production [4]: reduced
IL-2 production [4]: reduced
